Results published in publication PMC8957950 (Frontiers in Pharmacology, 2022).
Like-named read-outs stand apart in the source and are kept apart here.

Experiments:
[1] = Text: Patients’ data were obtained from the inpatients’ medical database.
Gram-positive bacteria = assay: Clinical and microbiological efficacy evaluation of TEI treatment; type: in vivo, human; details: for Eradication rate of Gram-positive bacteria: eradication or presumed eradication
Description: According to the guiding principles of Clinical Trial Technology of antibacterial agents (2014 edition) ([Writing Group of Guidance for Clinical Trials of Antibacterial Drugs, 2014]), the judgment on efficacy evaluation includes clinical efficacy and microbiological efficacy. Clinical efficacy was evaluated after 7–14 days of medication. Clinical efficacy was evaluated in terms of clinical cure and clinical failure. Clinical cure is defined as the complete resolution or significant improvement of pretreatment infection signs and symptoms such that no additional antimicrobial therapy is needed. Clinical failure is defined as no apparent response or an incomplete response that needs additional antibiotic therapy for infections. The microbiological efficacy was evaluated as eradication, presumed eradication, no eradication, and presumed no eradication. Microbiological success was defined as eradication or presumed eradication of Gram-positive bacteria ([Writing Group of Guidance for Clinical Trials of Anti-bacterial Drugs, 2014]). The primary outcomes were clinical cure and microbiological success rates at the end of treatment (EOT).
Univariate and multivariate logistic regression analyses were used to select the covariables of the regression model. We established the regression model for predicting the factors influencing the eradication of Gram-positive bacteria. In univariate analysis, the χ^2 test or the Fisher exact test was used to compare the categorical variables. Continuous variables were compared by using the Mann–Whitney U test. Covariates with p values <0.1 were included in the multivariate logistic regression analysis (backward procedure, based on the p-value of the predictor removed) ([Hammitt et al., 2019]). Multivariate logistic regression analysis was used to screen for independent risk factors. SPSS software automatically screened out the independent variables when the optimal balance was reached between the fitting degrees of the prediction model.
Independent risk factor variables were used to establish regression equations and calculate prediction probabilities. The receiver operating characteristic (ROC) curves of multivariate factors were drawn; the area under the curve (AUC), cutoff point, Youden index, sensitivity, and specificity were used to evaluate their predictive value for predicting the factors influencing the eradication of Gram-positive bacteria.

## Teicoplanin
[1]; CRRT group
  28-day hospital mortality rate: 22.5%
[1]; non-CRRT group
  28-day hospital mortality rate: 15.2%
Gram-positive bacteria; CRRT group
  Cases of presumed eradication of Gram-positive bacteria: 4 cases
  Eradication rate of Gram-positive bacteria: 77.5%
Gram-positive bacteria; CRRT group (n = 40)
  Clinical cure rate: 67.5%
Gram-positive bacteria; non-CRRT group (n = 66)
  Clinical cure rate: 72.7%
Gram-positive bacteria; non-CRRT group
  Eradication rate of Gram-positive bacteria: 81.8%
